Target: T1, CDC2-like kinase-1 (CLK1) (Mus musculus, UniProt P22518)
T1 construct: Recombinant GST-CLK1
Test: radiometric kinase assay with […] [gamma-33P] ATP, dose-response (n = […])
Type: biochemical

T1 sequence (P22518 whole entry): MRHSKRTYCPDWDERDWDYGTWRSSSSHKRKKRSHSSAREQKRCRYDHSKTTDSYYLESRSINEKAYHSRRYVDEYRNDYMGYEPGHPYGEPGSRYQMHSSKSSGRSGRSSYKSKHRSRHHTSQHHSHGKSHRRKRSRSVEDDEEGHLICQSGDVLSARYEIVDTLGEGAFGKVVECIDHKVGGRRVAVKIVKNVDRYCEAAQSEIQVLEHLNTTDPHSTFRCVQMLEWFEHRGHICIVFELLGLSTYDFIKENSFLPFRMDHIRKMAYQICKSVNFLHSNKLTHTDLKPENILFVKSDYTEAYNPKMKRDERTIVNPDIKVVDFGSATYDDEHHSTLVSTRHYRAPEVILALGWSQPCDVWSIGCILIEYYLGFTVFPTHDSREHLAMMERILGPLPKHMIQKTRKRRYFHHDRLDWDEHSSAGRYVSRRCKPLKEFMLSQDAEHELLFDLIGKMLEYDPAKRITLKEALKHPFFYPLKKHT

- IC50: 56.1 µM
Structure (SMILES): CC(C)=CCc1c(O)c(O)c(O)c2c1CC(=O)OC2C (stereo not shown) [compound 3, dihydrosecofuscin]

Reference: paper PMC5408257, “Bioactive Metabolites from the Deep Subseafloor Fungus Oidiodendron griseum UBOCC-A-114129” (Marine Drugs, 2017)
